This note sets out measurements from publication PMC6930570, “2-Arylidene-1-indandiones as Pleiotropic Agents with Antioxidant and Inhibitory Enzymes Activities” (Molecules, 2019).

The nature of data set [1]: Reducing activity of the stable radical DPPH. The format is biochemical. The protocol:
The novel derivatives were studied for their interaction with the sTable 2,2-diphenyl-1-picrylhydrazyl free radical (DPPH)at concentration 50 µM, 100 µM and 200 µM after 20 and 60 min (Table 2). In this assay the DPPH radical is reduced transferring one electron from the antioxidant. Phenolic compounds such as catechol and derivatives generate phenoxide anions with strong antioxidant capacity. Nordihydroguaretic acid (NDGA), the reference compound acts by this mechanism. Compound 10 presents the highest scavenging activity at 100 µM after 20 min correlated with the presence of the phenolic OH. Compounds 3, 4, 5, 7 presented medium activities depending from time and concentration. The presence of the heteroatom O or S seems to influence the activity e.g., derivatives 1, 2, and 3. Replacement of phenyl ring (4) by a thienyl group (1) decreases antioxidant behavior. […] On the contrary the presence of the furyl ring (3) enhances reduction. Additionally, the presence of a π-dimethyl-amino group 6 reduces the scavenging ability whereas its absence in (5), increases the activity. The presence of two conjugated double bonds (5) leads to lower activity compared to the simpler compound 4. Compounds 9 and 10 present the highest milogP values (5.94). Both include a phenolic hydrogen in their structure. […] On the contrary in compound 9 steric reasons are possible to lead to a decrease. Lipophilicity seems to influence the interaction of compound 10.
To a solution of DPPH in absolute ethanol an equal volume of the compounds with final concentrations of 50, 100 and 200 µM from a stock solution of 10 mM (in 1% DMSO and ethanol) was added. After 20 and 60 min the absorbance was recorded at 517 nm at room temperature (Table 2).
(In general: DPPH is a stable violet radical that fades when it is reduced.)

The test system of a further data set is trypsin. Put plainly: In vitro inhibition of trypsin induced proteolysis. The format is biochemical. The settings on record: bovine albumin substrate, no = no action under the experimental conditions. How it is done:
Serine proteases are implicated in the pathophysiology of inflammatory diseases and trypsin is well known years ago [66]. Trypsin has been associated with host defense reactions and tissue damage. In this study, the novel derivatives have been evaluated towards trypsin and thrombin. Compounds 8 and 9 present high activity.
The Kunitz method was used after modification using bovine albumin was used as substrate for trypsin. In this assay, first 200 μL of 0.075 mg/mL trypsin and 780 μL of phosphate buffer pH 7.6 including the tested compounds (20 μL in DMSO, final concentration 100 μM) were pre-incubated at 37 °C for 20 min and then added 1 mL of albumin (stock solution 6 g/100 mL in phosphate buffer 0.1 M, pH 7.6) and incubated at 37 °C for 30 min. Secondly 1mLof 5% trichloroacetic acid was added to the incubated solution to stop the enzyme’s reaction and allowed to set at room temperature for 1 h. Then the solution was filtered, and the absorption of the filtrate was measured at 280 nm using salicylic acid as a reference compound [61] (Table 3).

The nature of data set [2]: Experimental lipophilicity as RM values by RPTLC. The format is physicochemical. More on the design: key: RM = log[(1/Rf) − 1], from Rf values by RPTLC. The settings on record: methanol/water 70/30, 24 °C, average of at least 5 measurements. The text has this: Lipophilicity is a physicochemical parameter indicating the relationship of a drug to its biological activity. It affects ligand-target binding interactions, solubility, ADME (absorption, distribution, bioavailability, metabolism, and elimination) and toxicological effects. RPTLC (reverse phase thin layer chromatography) method was used for the experimental determination, as RM values. The RPTLC method is considered a secure, rapid and appropriate method for expressing the lipophilic character of a compound (Table 1).
Reversed phase TLC (RPTLC) was performed on silica gel plates impregnated with 5% (v/v) liquid paraffin in light petroleum ether. The mobile phase was a methanol/water mixture (70/30, v/v). The plates were developed in closed chromatography tanks saturated with the mobile phase at 24 °C. Spots were detected under UV light. Five individual measurements of Rf values were recorded and used for the determination of RM using the equation RM = log [(1/Rf) − 1] [59, 60, 62] (Table 2).

Data set [3] in a line: Inhibition of linoleic acid peroxidation induced by AAPH. The format is biochemical. Conditions: no = no action under the experimental conditions. The text has this: In the water soluble 2,2′-azobis(2-amidinopropane) hydrochloride (AAPH) the free radicals are produced in vitro through spontaneous thermal decomposition resembling to lipid peroxidation in cells due to the action of the peroxyl radicals. […] Compounds 11, 5, 4 and 3 presented no activity under the experimental conditions. From the experimental results it can be concluded that the 3,5-di-tert-butyl-group offers protection against lipid peroxidation. Electronic parameters expressed by the highest occupied molecular orbital (HOMO) describes better the biological activity (Equation (2)). log AAPH % = −22.042(± 8.731) HOMO − 4.853 (2.622)(2) n = 8, r = 0.930, r^2 = 0.864, q^2 = 0.567, s = 0.146, F1,8 = 5.783, α = 0.1
The oxidation reaction was started with 2,2′-Azobis(2-amidinopropane) dihydrochloride (AAPH) as a free radical initiator. Linoleic acid sodium salt was oxidized at 234 nm to a conjugated diene hydroperoxide resulting an increased absorption. Trolox was used as reference compound (93%) (Table 3).

The nature of data set [4]: ABTS+. decolorization assay. Conditions: 1 min, no = no action under the experimental conditions. It counts as biochemical. The text has this: The radical cation ABTS^+• is directly generated through potassium persulfate by oxidation with no participation of an intermediary radical and then the reduction is followed by adding electron-donating antioxidants. In this assay the radical is generated before adding the antioxidant (decolorization assay). […] It seems that lipophilicity influences the activity, since both are presenting high lipophilicity values. […] The radical cation ABTS^+• was generated from an ABTS stock solution in water (7 mM) which was mixed with potassium persulfate (2.45 mM) and left in the dark at room temperature for 12–16 h before use. The results are recorded after 1min of the mixing solutions at 734 nm and compared to the appropriate standard inhibitor Trolox (Table 3).

Another data set concerns the target T1, bovine thrombin (Bos taurus, UniProt P00735).
T1 construct: purchased Sigma Chemical, Co. (St. Louis)
Kind of data set: In vitro inhibition of thrombin. It counts as biochemical. Conditions: substrate tosyl-Gly-Pro-Arg-pNA, no = no action under the experimental conditions. How it is done:
It is well known that indandione derivatives exert their anticoagulant activity indirectly by inhibiting prothrombin synthesis in the liver. […] Derivatives 1, 2, 5, 8, 9, 10, and 12 were tested in vitro as possible thrombin inhibitors. Among the tested derivatives compound 8 presented 100% inhibition followed by compounds […] and 10.
As a substrate tosyl-Gly-Pro-Arg-pNA acetate salt was used at 1 mM final concentration. Compounds were dissolved at a final concentration of […] in a Tris-buffer (0.05 M Tris, 0.154 M NaCl, ethanol 5%, pH = 8.0). Three minutes after the addition of bovine thrombin (2.5 unit/mg), the reaction was ended by adding 1 mL acetic acid 50%. The absorption of the released p-nitro-aniline was measured at 405 nm (Table 3). Warfarin and Inogatran were used as reference compounds.

Consider `CC(C)(C)c1cc(C=C2C(=O)c3ccccc3C2=O)cc(C(C)(C)C)c1O` [Compound 10, (Z)-2-(3,5-di-tert-butyl-4-hydroxybenzylidene)-1H-indene-1,3(2H)-dione], for which the melting point (in general, the temperature, or range, at which the solid turns liquid) was 98 to 100 °C. Further, in data set [1], the “RA% 50 µM 20 min” value was found to be 13%, the “RA% 50 µM 60 min” value was 17%, the “RA% 100 µM 20 min” value amounted to 100% and the “RA% 100 µM 60 min” value amounted to 85%. Further, in data set [1], the “RA% 200 µM 20 min” value was 71% and the “RA% 200 µM 60 min” value is 71%. The “Iptr% 100 µM (inhibition of trypsin induced proteolysis)” value with trypsin is “do not present any activity and no”. Moreover, the “RM (±SD)” value in data set [2] is listed as −0.103 ± 0. Also, in data set [3], the “AAPH% 100 µM (anti-lipid peroxidation)” value came to 85%. In addition, the “ABTS+. % 100 µM (decolorization activity)” value in data set [4] was determined as 39%. Moreover, the inhibition (in general, how much of the control response was suppressed) at 100 µM on bovine thrombin (read-out: TH% 100 µM (thrombin inhibition)) worked out at 27%.
Regarding `O=C1C(=Cc2cccc(Oc3ccccc3)c2)C(=O)c2ccccc21` [Compound 7, (Z)-2-(3-phenoxybenzylidene)-1H-indene-1,3(2H)-dione], the melting point was in the range of 143 to 145 °C. Besides, in data set [1], the “RA% 50 µM 20 min” value worked out at 27%, the “RA% 50 µM 60 min” value was found to be 35%, the “RA% 100 µM 20 min” value is on record as 40% and the “RA% 100 µM 60 min” value amounted to 50%. In data set [1], the “RA% 200 µM 20 min” value worked out at 75% and the “RA% 200 µM 60 min” value amounted to 85%. Also, the “Iptr% 100 µM (inhibition of trypsin induced proteolysis)” value in the data set on trypsin is 33%. The “RM (±SD)” value in data set [2] is reported as −0.196 ± 0.02. In addition, the “AAPH% 100 µM (anti-lipid peroxidation)” value in data set [3] is 82%. The “ABTS+. % 100 µM (decolorization activity)” value in data set [4] is reported as 37%. Moreover, the “TH% 100 µM (thrombin inhibition)” value at bovine thrombin is given as “no”.
